Measurements from patent publication US20160237158A1, “Methods and Compositions for Targeting Tumor Microenvironment and for preventing Metastasis” (INSTITUT NATIONAL DE LA SANTÉ ET DA LA RECHERCHE MÉDICALE …, priority 2013, published 2016).

What was measured:
hDF and hCAF = test: Matrix remodelling (collagen gel contraction) assay; assay type: cell-based, human; details: collagen rich lattices
Protocol: (§1) 2.5×10^4 Fibroblasts were embedded in 100 μl of matrix gel (the Collagen-Matrigel mixture used for organotypic invasion assays) and plated into wells of a 96 well plate^57. After 1 h at 37° C., the matrices were overlaid with 100 μl serum-free medium (with either vehicle, cytokines or inhibitors) or CM. Every 2 days, medium was changed and at day 6 the gels were photographed and the respective diameters of the well and gel were measured using ImageJ. The percentage contraction was calculated using the formula 100*(well diameter−gel diameter)/well diameter.

hDF = test: Collagen fibre assembly in 3D-organotypic cultures (Sirius Red); assay type: cell-based, human; details: hDF stimulated by either TGFβ1 or LIF
Protocol: After embedding in paraffin, tissue sections from organotypic culture, skin from human breast and foreskin, and human skin carcinomas were prepared on slides using standard methods. Collagen assembly was evaluated by Sirius Red staining. Briefly, sections were first incubated with Weigert's iron hematoxylin (#C0231, Diapath, Martinengo, Italy) for 8 minutes and washed in distilled water for 10 minutes. Sections were next incubated with 1% Sirius Red in saturated picric acid for 1 hour. The slides were then washed twice with 0.5% acetic acid in distilled H2O, dehydrated and mounted using classical procedures. Sections were analysed using polarized light imaging and confocal laser microscopy with a LSM 5 EXCITER confocal microscope (Carl Zeiss, Germany). Collagen fibres thickness and length were quantified using ImageJ software.

SMAD2 = SMAD2 phosphorylation in fibroblasts (western blot); assay type: cell-based, human; details: TGFβ1- or LIF-stimulated fibroblasts
Description: (§2) For western blot analysis, antibodies against STAT3 (#9134), pY705-STAT3 (#9145), SMAD2 (#3122), pSer465/467-SMAD2 (#3108), pY1022/1023-JAK1 (#3331), MLC2 (#3672), pThr18/19-MLC2 (#3674) were purchased from Cell Signaling (Cell Signaling Technology, Beverly Mass.), α-tubulin from sigma (T4026, Sigma, Saint Louis, Mo.); JAK1 from Biolegend (#604402, Biolegend, San Diego, Calif.), GP-130 (#sc-655) and RhoA (#sc-418, Santa Cruz Biotechnology, Santa Cruz, Calif.), and alpha-smooth muscle actin (α-SMA) from Abcam (#Ab5694, Abcam, Cambridge, Mass.). For immunofluorescence staining, antibodies against α-SMA and fibronectin were purchased from Sigma (#A2547 and F3648 respectively, Sigma, Saint Louis, Mo.). Chemical inhibitors used: Pyridone 6 (#42009, Calbiochem, Los Angeles, Calif.) was used at […], SB431542 (#1614, Tocris bioscience, Ellisville, Mo.) at 10 μM, Y27632 (#1254, Tocris bioscience, Ellisville, Mo.) and Actinomycin D (#856258, Sigma, Saint Louis, USA) at 5 μg/ml.
For immunoblotting analysis, cells were lysed on ice in lysis buffer (25 mM Tris (pH 6.8), 2% Sodium dodecyl sulfate (SDS), 5% glycerol, 1% beta-mercaptoethanol, 0.01% bromophenol blue). Equal amounts of protein from each sample were loaded on sodium dodecyl sulfate-polyacrylamide gel electrophoresis, separated, and transferred onto nitrocellulose. […]

mouse dermal fibroblasts = test: TGFβ1-stimulated mouse dermal fibroblasts: STAT3 phosphorylation and collagen gel contraction; assay type: cell-based
Protocol: as §1
(§3) For immunoblotting analysis, cells were lysed on ice in lysis buffer (25 mM Tris (pH 6.8), 2% Sodium dodecyl sulfate (SDS), 5% glycerol, 1% beta-mercaptoethanol, 0.01% bromophenol blue). Equal amounts of protein from each sample were loaded on sodium dodecyl sulfate-polyacrylamide gel electrophoresis, separated, and transferred onto nitrocellulose. The immunoblots were blocked by incubation in 5% bovine serum albumin, 10 mM Tris-HCl (ph7.5), 500 mM NaCl, 0.1% Tween 20 for 30 min at room temperature, probed with specific antibodies and then with secondary antibodies using common classical methods. Immunodetection was performed using chemiluminescent HRP subtrate (#WBKLS0500, Millipore, Billerica, Mass.).

fibroblasts = test: Fibroblast contractility (collagen lattices) and pro-invasive activity (organotypic invasion) induced by human tumour cell conditioned media; assay type: cell-based; design: key to Fibroblasts contractile & pro-invasive phenotype: +: induction; −: no induction
Protocol: In this assay, hDF or CAFs were cultured during one week in serum-free medium (with either vehicle or cytokines) or CM before embedding in matrix gel. 5×10^5 fibroblasts were embedded in a 1 ml mixture of collagen I and Matrigel18. After the gel was set at 37° C. for 1 h, 5×10^5 SCC12 were plated on top of the gel in complete media. The next day, the gel was lifted onto individual collagen coated nylon discs resting on metal bridges and fed from underneath with daily changes of complete media (with either vehicle or inhibitors), allowing the epithelial layer to grow at an air-liquid interface.
After 5 days, cultures were fixed (4% paraformaldehyde+0.25% glutaraldehyde in PBS) and processed for haematoxylin and eosin (H&E) staining by standard methods. Invasion assay was measuring the total area of SCC cells and the area of non-invading SCC cells using imageJ software (http://rsbweb.nih.gov/ij/). The value of invasion index shown is the average 1−(non-invading area/total area) of at least ten fields from three or more independent experiments. Error bars are the standard deviation.
as §1
Neutralizing antibody against LIF (AB-250-NA, R&D, Minneapolis, Minn.), IL-6 R (AB-227-NA, R&D) or TGF beta-1,2,3 (MAB1835, R&D) were used at 10 μg/ml otherwise stated. Neutralizing antibody were incubated one hour with conditioned media before being used for matrix remodelling assay and fibroblasts stimulation to neutralize the biological activity of selected cytokines.
Cancer Cells were grown to confluence, washed twice with PBS and then incubated in serum-free medium at 37° C. After 48 hours, conditioned medium was collected, centrifugated at 5000 g for 5 minutes to remove cell debris and the supernatant stored at −80° C. For immunobloting analysis, fibroblasts were stimulated with cancer cells conditioned media for 5 min, otherwise stated, and lysed as described in the immunbloting section. To analyse LIF secretion upon TGFβ-1 stimulation, fibroblasts were stimulated with 2 ng/ml TGF beta-1 for 1, 4, 24 or 48 h in serum-free medium and conditioned media was prepared as below for ELISA analysis.

STAT3 = STAT3 phosphorylation in fibroblasts (western blot); assay type: cell-based, human
Description: as §2, §3

N#CCC(C1CCCC1)n1cc(-c2ncnc3[nH]ccc23)cn1 (stereo not drawn) [Ruxolitinib, 3-Cyclopentyl-3-[4-(7H-pyrrolo[2,3-d]pyrimidin-4-yl)-1H-pyrazol-1-yl]propanenitrile]
complete abrogation: STAT3 phosphorylation (mouse dermal fibroblasts) | matrix remodelling (mouse dermal fibroblasts)
completely inhibited: TGFβ1 and LIF-dependent activation of hDF contractility (hDF and hCAF)
inhibited: capacity to assembly polarized collagen fibres (hDF)
−: Fibroblasts contractile & pro-invasive phenotype (fibroblasts; A375M2 CM (h. melanoma), antibodies 10 μg·ml−1, αLIF (50)) | Fibroblasts contractile & pro-invasive phenotype (fibroblasts; A375P CM (h. melanoma), antibodies 10 μg·ml−1) | Fibroblasts contractile & pro-invasive phenotype (fibroblasts; A549 CM (h. lung carcinoma), antibodies 10 μg·ml−1) | Fibroblasts contractile & pro-invasive phenotype (fibroblasts; CAL27 CM (human OSCC), antibodies 10 μg·ml−1, αLIF (50)) | Fibroblasts contractile & pro-invasive phenotype (fibroblasts; CAL33 CM (human OSCC), antibodies 10 μg·ml−1) | Fibroblasts contractile & pro-invasive phenotype (fibroblasts; CAL33_LIF CM (h. engineered cell line), antibodies 10 μg·ml−1, αLIF (50)) | Fibroblasts contractile & pro-invasive phenotype (fibroblasts; CAL33_mock CM (h. engineered cell line), antibodies 10 μg·ml−1) | Fibroblasts contractile & pro-invasive phenotype (fibroblasts; CAL60 CM (human OSCC), antibodies 10 μg·ml−1) | Fibroblasts contractile & pro-invasive phenotype (fibroblasts; CAL166 CM (human OSCC), antibodies 10 μg·ml−1) | Fibroblasts contractile & pro-invasive phenotype (fibroblasts; Detroit562 CM (human OSCC), antibodies 10 μg·ml−1) | Fibroblasts contractile & pro-invasive phenotype (fibroblasts; LS174 CM (h. colon carcinoma), antibodies 10 μg·ml−1) | Fibroblasts contractile & pro-invasive phenotype (fibroblasts; MDA-MB-231 CM (breast carcinoma), antibodies 10 μg·ml−1) | Fibroblasts contractile & pro-invasive phenotype (fibroblasts; MDA-MB-468 CM (breast carcinoma), antibodies 10 μg·ml−1) | Fibroblasts contractile & pro-invasive phenotype (fibroblasts; Mel501 CM (h. melanoma), antibodies 10 μg·ml−1) | Fibroblasts contractile & pro-invasive phenotype (fibroblasts; Mel1205 CM (h. melanoma), antibodies 10 μg·ml−1) | Fibroblasts contractile & pro-invasive phenotype (fibroblasts; SCC12 CM (human OSCC), antibodies 10 μg·ml−1) | Fibroblasts contractile & pro-invasive phenotype (fibroblasts; SCC13 CM (human OSCC), antibodies 10 μg·ml−1) | Fibroblasts contractile & pro-invasive phenotype (fibroblasts; SCC25 CM (human OSCC), antibodies 10 μg·ml−1) | Fibroblasts contractile & pro-invasive phenotype (fibroblasts; Sbcl2 CM (h. melanoma), antibodies 10 μg·ml−1) | Fibroblasts contractile & pro-invasive phenotype (fibroblasts; WM35 CM (h. melanoma), antibodies 10 μg·ml−1) | Fibroblasts contractile & pro-invasive phenotype (fibroblasts; WM278 CM (h. melanoma), antibodies 10 μg·ml−1) | Fibroblasts contractile & pro-invasive phenotype (fibroblasts; WM793 CM (h. melanoma), antibodies 10 μg·ml−1) | Fibroblasts contractile & pro-invasive phenotype (fibroblasts; hPK CM, antibodies 10 μg·ml−1)
no effect: effect on SMAD2 (SMAD2)
repressing: STAT3 phosphorylation (STAT3; TGFβ1- or LIF-stimulated fibroblasts)
inhibition: CAF endogenous STAT3 activity (STAT3; hCAF)
